What was measured:
rat ovarian aromatase = experiment: Aromatase inhibition in vivo in rats (ovarian aromatase activity); details: for % Aromatase inhibition at 30 mg/kg p.o.: PMSG-treated adult female rats, ovaries taken 24 hours later; for In vivo effectiveness by oral route: 30 mg/kg
Text: The aromatase inhibitors for formula (I) can find also use in the control of reproduction: indeed a decrease in oestrogen levels in vivo results in gonad-inhibiting activity and in insufficient uterine development; aromatase inhibitors may be at the same time implantation inhibitors. Another application of the compounds of the invention is in the treatment of prostatic hypertrophy or hyperplasia, related to an excessive oestrogen production and the shifting of the oestrogen/androgen ratio to higher values. Furthermore, the compounds of the invention, producing decrease in estradiol formation, may be useful for the treatment of male fertility disturbances (Drugs 28: 263, 1984). […] Accordingly, decreased estradiol formation, as can be obtained through administration of the compounds of the invention, leads to an improvement of both sperm count and fertility, in patients with infertility due to oligozoospermia. Aromatase inhibition by the compounds of the present invention was determined, e.g., both in vitro (human placental aromatase) and in vivo (ovarian aromatase activity) in rats.
(§1) The enzyme system was isolated from the microsomal fraction of human placental tissue according to standard procedure. The assay of Thompson and Siiteri [E. A. Thompson and P. K. Siiteri, J. Biol. Chem. 249, 5364, (1974)] which determines the rate of aromatization as measured by the liberation of ^3 H2 O from 4-[1β,2β-^3 H] androsten-3,17-dione was used. All incubations were carried out in a shaking water bath at 37° C. in air in 10 mM potassium phosphate buffer, pH 7.5, which contained 100 mM KCl, 1 mM EDA and 1 mM dithiothreitol. The experiments were carried out in 1 ml incubation volume containing 50 nM 4-[…], various concentrations of the inhibitors, 100 μM NADPH and 0.05 mg of microsomal proteins. After 15 minutes of incubation the reaction was stopped by the addition of chloroform (5 ml). After centrifugation at 1500×g for 5 minutes, aliquots (0.5 ml) were removed from the water phase for determination of ^3 H2 O formed. The concentration of each compound required to reduce control aromatase by 50% (IC50) was determined by plotting % inhibition versus log of inhibitor concentration. The relative potency of each compound versus 4 OH-A was calculated according to the relation: [formula] (b) Aromatase inhibition in vivo in rats Adult female rats were twice treated subcutaneously with 100 I.U. pregnant mares' serum gonadotropin (PMSG) at 4 days' interval, in order to increase ovarian aromatase activity, according to Brodie's procedure [A. M. H. Brodie et al., Steroids 38, 693, (1981)]. Three days after the second PMSG treatment, groups of 6 animals each were given orally the vehicle (0.5% methocel) or the inhibitor at 30 mg/kg. Animals were killed 24 hours later, microsomes were isolated from ovaries and their aromatase activity determined using a method similar to that described in (a).

[1] = biological target: T1, human placental aromatase (Homo sapiens, UniProt P11511); experiment: Aromatase inhibition in vitro (human placental aromatase, 3H2O release assay); assay type: biochemical
T1 construct: The enzyme system was isolated from the microsomal fraction of human placental tissue; from tissue; host or cells: human placental tissue, microsomal fraction
T1 sequence (P11511 1-503): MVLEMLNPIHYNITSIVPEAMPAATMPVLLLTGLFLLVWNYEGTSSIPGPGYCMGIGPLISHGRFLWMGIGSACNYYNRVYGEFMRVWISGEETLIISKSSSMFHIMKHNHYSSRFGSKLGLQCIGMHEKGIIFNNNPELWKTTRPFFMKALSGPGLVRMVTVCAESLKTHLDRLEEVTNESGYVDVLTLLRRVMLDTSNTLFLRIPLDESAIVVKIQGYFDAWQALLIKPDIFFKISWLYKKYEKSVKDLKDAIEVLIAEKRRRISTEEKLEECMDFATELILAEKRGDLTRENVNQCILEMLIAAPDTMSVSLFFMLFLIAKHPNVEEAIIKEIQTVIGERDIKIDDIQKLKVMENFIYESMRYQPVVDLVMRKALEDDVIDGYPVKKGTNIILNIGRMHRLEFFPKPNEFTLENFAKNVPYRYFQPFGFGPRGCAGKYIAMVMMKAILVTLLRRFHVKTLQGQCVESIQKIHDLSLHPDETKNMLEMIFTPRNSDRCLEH
Experimental: Aromatase inhibition by the compounds of the present invention was determined, e.g., both in vitro (human placental aromatase) and in vivo (ovarian aromatase activity) in rats.
(a) Aromatase inhibition in vitro
as §1

[2] = Resistance to hepatic metabolization; details: oral route
[3] = cited from earlier work

Structure (SMILES)	% Aromatase inhibition at 30 mg/kg p.o. (rat ovarian aromatase)	IC50 [1]	Relative potency (versus 4-OH-A) [1]	Resistance to hepatic metabolization [2]	Aromatase inhibition in vivo (rat ovarian aromatase; in vivo)	In vivo activity compared to androsta-1,4-dien-3,17-dione (rat ovarian aromatase; in vivo)	In vivo effectiveness by oral route (rat ovarian aromatase)	Potency relative to androsta-1,4-dien-3,17-dione (rat ovarian aromatase; stated as in vivo)	Potency relative to Δ^1-testololactone (times more potent) (rat ovarian aromatase; stated as in vivo)	Aromatase inhibition in vitro ([1]; in vitro)	In vitro potency relative to 4-OH-A ([1]; in vitro)	Conjugation after oral administration [3]
C[C@]12C=CC(=O)C=C1CC[C@@H]1[C@@H]2CC[C@]2(C)OC(=O)CC[C@@H]12 [Δ^1 -testololactone, reference compound]	inactive	8240 nM	0.005									
C[C@]12C=CC(=O)C=C1CC[C@@H]1[C@@H]2CC[C@]2(C)C(=O)CC[C@@H]12 [androsta-1,4-dien-3,17-dione, reference compound]	37%											
C[C@]12CCC(=O)C(N)=C1C=C[C@@H]1[C@@H]2CC[C@]2(C)C(=O)CC[C@@H]12 [FCE 24210, 4-aminoandrosta-4,6-dien-3,17-dione]	70%	148 nM	0.30	unusual resistance to hepatic metabolization	very potent aromatase inhibitors both in vitro and in vivo	very superior to that of androsta-1,4-dien-3,17-dione	very effective when administered in vivo by oral route	about equipotent as androsta-1,4-dien-3,17-dione	about 55 times	very potent aromatase inhibitors both in vitro and in vivo	about three times lower than that of 4-OH-A	
C[C@]12CCC(=O)C(O)=C1CC[C@@H]1[C@@H]2CC[C@]2(C)C(=O)CC[C@@H]12 [Example 4-OH-A, 4-hydroxyandrost-4-en-3,17-dione, reference compound]	inactive	44 nM					ineffective					extensively conjugated after oral administration

— US4757061A, “4-amino androstendione derivatives and process for their preparation” (Farmitalia Carlo Erba, S.p.A., priority 1985, dated 1988)
